Assay results from patent US12721934B2, “Cationic nanodrug, preparation method therefor, and drug-loaded implantable medical device” (SHANGHAI MICROPORT MEDICAL (GROUP) CO., LTD., priority 2019, dated 2026).

System: Vascular smooth muscle cells (SMCs)
Test: Cytotoxicity of the cationic substances (MTT)
Type: cell-based
Protocol: Vascular smooth muscle cells (SMCs) were collected and the cell concentration was determined using a hemocytometer. The cell concentration was adjusted to […] using a liquid cell culture medium. The cell suspension was dispensed on a 96-well plate ([…] cells in each well) and the wells were divided into groups (a control group and four test groups), four wells for each group. After the cells were cultivated for 24 hours under regular cell culture conditions, the culture medium was pipetted away. Each of the fresh culture media and culture media respectively containing the suspensions of non-drug loaded nanoparticles prepared in Example 14, Comparative Example 2 and Comparative Example 3 was added (the cationic substance in each of the three examples has a same concentration). After the cells were further cultivated for 24 hours, 50 μL of an MTT agent was dispensed into each well, and the cells were then incubated for 4 hours in a CO2 incubator. After that, the culture media were carefully pipetted away, and 150 μL of dimethyl sulfoxide was added to each well. The plate was then shaken gently to facilitate dissolution of formazan. Absorbance of each well at 490 nm was measured using a microplate reader, and cell survival rates were calculated according to: […]

| Structure (SMILES) | Cytotoxicity (in words) |
| --- | --- |
| CCCCCCCCCCCC[N+](C)(C)CCCCCCCCCCCC.[Br-] [DMAB, didodecyldimethylammonium bromide] | serious cytotoxicity |
| CCCCCCCC/C=C\CCCCCCCC(=O)OCC(C[N+](C)(C)C)OC(=O)CCCCCCC/C=C\CCCCCCCC.[Cl-] (centres unmarked) [DOTAP, 1,2-dioleoyl-3-trimethylammonium-propane chloride] | does not show noticeable cytotoxicity |
